Test results published in patent US12458608B2 (NACUITY PHARMACEUTICALS, INC., priority 2019, dated 2025).
“Also recorded” adds a separate entry of the source.

Legend:
[1] = test system: Light melanin human skin explant; test: Human skin explants exposed to UVA radiation, GSSG/thiol analysed by LCMS; assay type: cell-based; settings: for Levels of thiol production in human skin exposed to UVA-induced oxidative skin damage: FIG. 3; for Dermal GSSG / levels of GSSG production: topical 100 mM in 10% DMSO/water 30 min prior to UVA (24 J/cm2), tissue harvested 24 hours after UVA, single donor, n=6
Procedure: Effects of NPI-001 (NACA 10 mM) and diNACA (10 mM) on human skin explants upon radiation (UVA) exposure.
Light melanin human skin explant (single donor; n=6) in transwells were exposed to UVA radiation (24 J/cm2) with and without topical application of the NPI-001 and diNACA at a final concentration of 100 mM (NPI-001 16.2 mg/ml; diNACA 32.2 mg/ml) dissolved or suspended in 10% DMSO/water and applied at ˜18 μl/cm2(˜6 μl/0.33 cm2) 30 min prior to UVA exposure (24 J/cm2 exposure). 24 hours following UVA exposure tissue was harvested, cut in half and heat separated into epidermal and dermal layers; weighed; immediate submersion of the dermal and epidermal layers into a derivatization solution, analyzed by LCMS.

[2] = molecular target: glutamate cysteine ligase (GCL, EC 6.3.2.2); settings: nonallosteric competitive inhibition; cited from earlier work
[3] = test system: Reconstructed human epithelium (RHE) with melanocytes (MelanoDerm); test: Reconstructed human epithelium (RHE) model to assess decrease of pigmentation in skin (photographs, melanin extraction); assay type: cell-based; settings: for RHE pigmentation: MelanoDerm RHE cultured 14 days, basolateral treatment every other day, NACA 10 mM, diNACA 10 mM, 2% GSSG, vs relative day untreated control
Procedure: Reconstructed human epithelium (RHE) model to assess the ability of NPI-001 and NPI2 to decrease pigmentation in skin:
Reconstructed human epithelium (RHE) with melanocytes were obtained from MatTek (MelanoDerm™ cat #MEL-300B). RHE were cultured for 14 days with reapplication of media with basolateral treatment every other day. Day 0, Day 7 and Day 14 RHE were photographed and frozen for melanin extraction.
After harvest of RHE on Day 14, cultures were submerged for 30 min in 1% sodium bicarbonate and transferred to Eppendorf tubes with 500 μl Solvable™ reagent for overnight incubation at 60° C. A synthetic melanin standard curve was made in Solvable™ reagent from 0.5-0.0039 mg/ml in half dilutions. 200 μl of extracted melanin was transferred to a 96 well plate and read at 490 nm for quantification.

[4] = cited from earlier work

CC(=O)N[C@@H](CS)C(N)=O
Levels of thiol production in human skin exposed to UVA-induced oxidative skin damage [1]: increased | Dermal GSSG / levels of GSSG production [1]: increased; also recorded: statistically significant increases

N[C@@H](CCC(=O)N[C@@H](CS)C(=O)NCC(=O)O)C(=O)O [GSH, c-L-glutamyl-L-cysteinyl-glycine]
Ki [2]: 2.3 mM

CC(=O)N[C@@H](CSSC[C@H](NC(C)=O)C(N)=O)C(N)=O [diNACA, (2R,2R′)-3,3′-disulfanediyl bis(2-acetamidopropanamide)]
Levels of thiol production in human skin exposed to UVA-induced oxidative skin damage [1]: increased | Dermal GSSG / levels of GSSG production [1]: increased; also recorded: statistically significant increases | RHE pigmentation [3]: decreased; also recorded: significantly inhibited | RHE pigmentation ([3]; listed as NPI2): decreased | Melanin extracted from RHE ([3]; after 0, 7 and 14 days with treatment, read at 490 nm, vs untreated control at relative day of harvest): decreased

CC(=O)N[C@@H](CS)C(=O)O [NAC, N-acetylcysteine]
NAC detectable after administration ([4]; 10-12 hours after administration): no NAC is detectable | Plasma half-life ([4]; humans): 2.5 h | Absorption and clearance ([4]; oral dose of 600 mg in humans): rapidly absorbed and then rapidly cleared
